Assay type in all cases: in vivo
The subject of experiment [1] is Green peach aphid (Myzus persicae). Briefly: Myzus persicae test, foliar application on infested cabbage leaves. The following applies: 144 h, 100 g ai/ha, foliar spray, 6 d, read-out: Mortality in % after 6 d. As to the method: Myzus persicae—Foliar Application
(§1) To produce a suitable preparation of active compound, 1 part by weight of active compound is mixed with the stated amount of solvent and emulsifier, and the concentrate is diluted with emulsifier-containing water to the desired concentration. To produce a suitable preparation of a biological suspension the cells or spores are diluted with emulsifier-containing water to the desired concentration.
Cabbage leaves (Brassica oleracea) which are heavily infested by the Green peach aphid (Myzus persicae) are treated by being sprayed with the preparation of the active compound at the desired concentration.
After the specified period of time, mortality in % is determined. 100% means that all the aphids have been killed; 0% means that none of the aphids have been killed. The mortality values thus determined are recalculated using the Colby-formula.

Experiment [2] has the same test system. Briefly: Myzus persicae test, spray application on Chinese cabbage leaf discs. The note with it: foliar, 24 h, 20 g ai/ha, 1 d, read-out: Mortality in % after 1 d. As to the method:
Myzus persicae—Test (Spray Application)
as §1
Chinese cabbage (Brassica pekinesis) leaf—discs infected with all instars of the green peach aphid (Myzus persicae), are sprayed with a preparation of the active ingredient at the desired concentration.
After the specified period of time mortality in % is determined. 100% means that all aphids have been killed; 0% means that none of the aphids have been killed.

For experiment [3], the system named is larvae of the Banded Cucumber Beetle (Diabrotica balteata). Briefly: Diabrotica balteata larvae test, soil application, corn. The following applies: 60 g ai/ha, mixed into soil, based on number of germinated corn plants. The protocol: Diabrotica balteata Test/Larvae—Soil Application
(§2) To produce a suitable preparation of active compound, 1 part by weight of active compound is mixed with the stated amount of solvent and emulsifier, and the concentrate is diluted with emulsifier-containing water to the desired concentration. To produce a suitable preparation of a spore suspension the spores are diluted with emulsifier-containing water to the desired concentration.
The preparation containing the active ingredient is thoroughly mixed into the soil. […] The treated soil is filled into pots and sown with 5 corn seeds per pot. 3 days after sowing larvae of the Banded Cucumber Beetle (Diabrotica balteata) are placed in the soil.
After the desired period of time the level of activity expressed in % is determined. The level of activity is calculated on the basis of the number of corn plants which have successfully germinated. The efficacy values determined thus are recalculated using the Colby-formula.

In experiment [4] the test system is larvae of the mustard beetle (Phaedon cochleariae). Nature of the experiment: Phaedon cochleariae larvae test, foliar application on cabbage leaves. The note with it: 48 h, 60 g ai/ha, foliar spray, 2 d, read-out: Mortality in % after 2 d. As to the method: Phaedon cochleariae Larvae—Foliar Application
as §2
Cabbage leaves (Brassica oleracea) are treated by being sprayed with the preparation of the active compound of the desired concentration and are infested with larvae of the mustard beetle (Phaedon cochleariae) as long as the leaves are still moist.
(§3) After the specified period of time, mortality in % is determined. 100% means that all the beetle larvae have been killed; 0% means that none of the beetle larvae have been killed. The mortality values thus determined are recalculated using the Colby-formula.

Experiment [5] relates to mustard beetle larvae (Phaedon cochleariae). Nature of the experiment: Phaedon cochleariae larvae test, spray application on Chinese cabbage leaf discs. The following applies: foliar, 144 h, 100 g ai/ha, 6 d, read-out: Mortality in % after 6 d. As to the method:
Phaedon cochleariae Larvae—Spray Application
To produce a suitable preparation of active compound, 1 part by weight of active compound is mixed with the stated amount of solvent and emulsifier, and the concentrate is diluted with emulsifier-containing water to the desired concentration. To produce a suitable preparation of a biological suspension the cells, viruses or spores are diluted with emulsifier-containing water to the desired concentration.
Chinese cabbage (Brassica pekinesis) leaf—discs are sprayed with a preparation of the active ingredient of the desired concentration. Once dry, the leaf discs are infested with mustard beetle larvae (Phaedon cochleariae).
as §3

For experiment [6], the system named is Seeds of soybean (Glycine max). Nature of the experiment: Seed treatment, germination test soybean. The note with it: 0.3 g ai/kg seeds (head: g ai/kg seeds). The protocol:
Seed Treatment—Germination Test Soybean
Seeds of soybean (Glycine max) were treated by being mixed with the desired amount of active compound and spores and water. After drying, 25 seeds were sown into each pot filled with sandy loam.
After 4 days the level of activity expressed in % was determined. The level of activity was calculated on the basis of the number of soybean plants which have successfully germinated.

As usually defined, the mortality is the share of the test organisms that died. Consider `O=C1C=C(N(Cc2ccc(Cl)nc2)CC(F)F)CO1` [Compound (I-3), 4-{[(6-Chloropyrid-3-yl)methyl](2,2-difluorethyl)amino}furan-2(5H)-one], for which the results for the mortality at 100 g/ha in experiment [1] and in experiment [5] were 90% and 0%, respectively. For the same compound, in experiment [2], the mortality at 20 g/ha was 0%. Besides, in experiment [3], the “Efficacy in % after 5 d” value is listed as 75%. In addition, the mortality at 60 g/ha in experiment [4] is 20%. Besides, the “Germination in % related to untreated control, evaluation after 4 d” value in experiment [6] is 72.73%.

These data come from US9241493B2, “Use of an enaminocarbonyl compound in combination with a biological control agent” (BAYER INTELLECTUAL PROPERTY GMBH, priority 2011, dated 2016).
